Consider one substance from patent US9605026B2, “Hydrogen-bond surrogate peptides and peptidomimetics for p53 reactivation” (New York University, priority 2013, dated 2017).

The subject of one assay is UMSCC47 cells. The assay can be described thus: Cell proliferation (MTT) in UMSCC47 cells. It counts as cell-based, human. An excerpt:
(§1) FIG. 5A is an schematic illustration showing that CH1 has two distinct target sites. HIF1-α/p300 structures were used as guides to design helix mimetics that target site A and site B on the CH1 domain of p300. […] CH1iA (SEQ ID NO: 7) and CH1iB (SEQ ID NO: 8) were designed to mimic two helices from the C-terminal domain of HIF-1α. The peptides were locked into the helical conformation by the hydrogen bond surrogate method. FIG. 5C is a graph of p53 activity. UMSCC47 (left) and UMSCC74A (right) cells were co-transfected with a p53 Firefly luciferase reporter plasmid and a control Renilla luciferase plasmid. After 24 hours, cells were treated with control (vehicle), CH1iA (10 μM), or CH1iB (10 μM) for 24 hours. Firefly luciferase activity was normalized to Renilla luciferase activity to control for transfection efficiency. Data is normalized to control and presented as mean±SEM. *P<0.05, n=3. FIG. 5D is a western blot showing total and acetylated p53 levels. UMSCC47 (left) and UMSCC74A (right) cells were treated with control (vehicle), CH1iA (10 μM), or CH1iB (10 μM) for 24 hours. Cell lysates were immunoblotted with anti-p53 or anti-acetylated[K382]-p53 antibody. FIG. 5E is a pair of graphs of p300, p53, p21, miR-34a, and miR-200c expression. UMSCC47 (top panel) and UMSCC74A (bottom panel) cells were treated with control (vehicle), CH1iA (10 μM), or CH1iB (10 μM) for 24 hours. mRNA expression was determined using qPCR with validated TaqMan assays. Data is normalized to control cells and presented as mean±SEM. *P<0.01, control vs. CH1iB, n=3. FIG. 5F is a western blot showing HPV16 E6-p300 association. UMSCC47 cells were treated with control (vehicle), CH1iA (10 μM), or CH1iB (10 μM) for 24 hours. Cell lysates were extracted, immunoprecipitated with anti-p300 antibody, and immunoblotted with anti-E6 antibody. Cell lysates were immunoblotted with anti-E6 or anti-p300 antibody for input control. FIG. 5G is a set of graphs of cell proliferation. UMSCC47 (top left panel), UMSCC74A (top right panel), and IMR90 (human normal fibroblasts) (bottom panel) cells were treated with control (vehicle), CH1iA (10 μM), CH1iB (10 μM), cis-platinum (10 μM), CH1iA (10 μM) and cis-platinum (10 μM), or CH1iB (10 μM) and cis-platinum (10 μM) for 24, 48, or 72 hours. Data is normalized to Day 0 and presented as mean±SEM. *P<0.01, control vs. CH1iB or cis-platinum, **P<0.01 CH1iB or cis-platinum vs. CH1iB and cis-platinum, n=6.
FIG. 7A is a graph of p53 transcriptional activity. UMSCC47 cells were co-transfected with a p53 Firefly luciferase reporter plasmid and a control Renilla luciferase plasmid. After 24 hours, cells were treated with control (vehicle) or CH1iB-mut (10 μM) for 24 hours. Firefly luciferase activity was normalized to Renilla luciferase activity to control for transfection efficiency. Data is presented as mean±SEM. *P<0.05, n=5. FIG. 7B is a graph of cell proliferation. UMSCC47 cells were treated with control (vehicle), CH1iB-mut (10 μM), cis-platinum (10 μM), or CH1iB-mut (10 μM) and cis-platinum (10 μM) for 24 or 48 hours. Data is normalized to Day 0 and presented as mean±SEM. *P<0.01, control or CH1iB-mut vs. cis-platinum or cis-platinum+CH1iB-mut, n=6.
Cell proliferation was assessed using the MTT reagent (Roche Molecular Biochemicals, Nutley, N.J.) to detect metabolic active cells. Absorbance was measured at 570 nm in the Spectra Max 190 ELISA reader (Molecular Devices, Sunnyvale, Calif.) after overnight incubation. […]

The next assay has as its system p53. The assay can be described thus: p53 transcriptional activity (Cignal p53 luciferase reporter) in UMSCC47 cells. It counts as cell-based, human. The note with it: UMSCC47 (HPV-positive), 10 μM, 24 hours, vs control (vehicle).
Text: as §1
FIG. 6A is a western blot showing total and acetylated p53 levels. […] UMSCC47 cells were treated with control (vehicle), CH1iB (10 μM), cis-platinum (10 μM), or CH1iB (10 μM) and cis-platinum (10 μM) for 24 hours. mRNA expression was determined using qPCR with validated TaqMan assays. […]
For orientation: A reporter such as luciferase makes a cellular process visible.

As for “XELA*RAADQ-NH2 (ELXRAADQ; HBS: 4-pentenoic acid, N-allylalanine; C-terminal amide; CH1iB-MUT)”, the “effect on anti-proliferative efficacy of cis-platinum (combination)” value with UMSCC47 cells (UMSCC47, 10 μM with cis-platinum 10 μM) is “no effect”. Besides, in the assay on UMSCC47 cells (UMSCC47, 10 μM, 24-72 hours), the “cell proliferation, single-agent” value was “no effect”. Besides, the p53 activity increase in the assay on p53 is 14%.
